Measurements as given in the NIST ThermoML archive (doi:10.1021/je5010214).

Conditions: Liquid, Vibrating tube method

CC(C)CO [2-methyl-1-propanol]
Conditions	mass density [kg/m3]
303.15 K, 20042 kPa	809.402
303.15 K, 25084 kPa	812.578
303.15 K, 30167 kPa	816.191
303.15 K, 32070 kPa	817.319
303.15 K, 33147 kPa	817.694
303.15 K, 35162 kPa	818.815
303.15 K, 38019 kPa	820.574
303.15 K, 39970 kPa	821.716
303.15 K, 42004 kPa	823.024
303.15 K, 45033 kPa	824.95
303.15 K, 49864 kPa	827.592
303.15 K, 52115 kPa	829.036
303.15 K, 55239 kPa	830.776
303.15 K, 58089 kPa	832.479
303.15 K, 60079 kPa	833.282
303.15 K, 62294 kPa	834.706
303.15 K, 65137 kPa	835.715
303.16 K, 270.1 kPa	793.901
303.16 K, 464.4 kPa	794.084
303.16 K, 779.6 kPa	794.287
303.16 K, 2945 kPa	796.031
303.16 K, 4911.2 kPa	797.923
303.16 K, 7058.6 kPa	799.569
303.16 K, 12047 kPa	803.47
303.16 K, 22055 kPa	811.092
303.16 K, 28094 kPa	815.049
303.16 K, 32939 kPa	817.604
303.16 K, 34037 kPa	818.139
303.16 K, 48317 kPa	826.769
303.16 K, 66124 kPa	836.43
308.15 K, 96.7 kPa	791.579
308.15 K, 250.6 kPa	791.714
308.15 K, 562.2 kPa	791.995
308.15 K, 991.9 kPa	792.349
308.15 K, 5219.3 kPa	795.881
308.15 K, 10282 kPa	799.926
308.15 K, 15083 kPa	803.575
308.15 K, 32866 kPa	815.75
308.15 K, 35203 kPa	817.171
308.15 K, 48031 kPa	824.96
308.15 K, 55094 kPa	828.952
308.15 K, 60161 kPa	831.729
308.15 K, 62192 kPa	832.798
308.15 K, 66004 kPa	834.804
308.16 K, 770.2 kPa	792.158
308.16 K, 2101.2 kPa	793.3
308.16 K, 3195.1 kPa	794.224
308.16 K, 7083 kPa	797.398
308.16 K, 9108 kPa	799.011
308.16 K, 12379 kPa	801.538
308.16 K, 18161 kPa	805.827
308.16 K, 20006 kPa	807.165
308.16 K, 22192 kPa	808.686
308.16 K, 25100 kPa	810.705
308.16 K, 27887 kPa	812.568
308.16 K, 30041 kPa	813.99
308.16 K, 31933 kPa	815.242
308.16 K, 33077 kPa	815.959
308.16 K, 34026 kPa	816.482
308.16 K, 35193 kPa	817.245
308.16 K, 38088 kPa	818.995
308.16 K, 40106 kPa	820.225
308.16 K, 42282 kPa	821.541
308.16 K, 45145 kPa	823.251
308.16 K, 50089 kPa	826.126
308.16 K, 52047 kPa	827.233
308.16 K, 58085 kPa	830.585
308.16 K, 65217 kPa	834.405
313.15 K, 82.9 kPa	787.4
313.15 K, 316.8 kPa	787.607
313.15 K, 491.8 kPa	787.767
313.15 K, 890.9 kPa	788.108
313.15 K, 981.5 kPa	788.182
313.15 K, 1939.6 kPa	789.038
313.15 K, 2951 kPa	789.905
313.15 K, 4889.1 kPa	791.537
313.15 K, 6856.5 kPa	793.195
313.15 K, 8886.9 kPa	794.841
313.15 K, 10029 kPa	795.77
313.15 K, 11886 kPa	797.214
313.15 K, 14927 kPa	799.577
313.15 K, 17845 kPa	801.775
313.15 K, 20040 kPa	803.389
313.15 K, 21942 kPa	804.76
313.15 K, 24894 kPa	806.85
313.15 K, 28132 kPa	809.095
313.15 K, 29974 kPa	810.333
313.15 K, 32058 kPa	811.716
313.15 K, 35162 kPa	813.664
313.15 K, 37952 kPa	815.444
313.15 K, 40011 kPa	816.732
313.15 K, 41939 kPa	817.878
313.15 K, 45098 kPa	819.95
313.15 K, 47966 kPa	821.512
313.15 K, 49918 kPa	822.65
313.15 K, 52024 kPa	823.857
313.15 K, 54951 kPa	825.557
313.15 K, 58062 kPa	827.336
313.15 K, 60202 kPa	828.515
313.15 K, 65050 kPa	831.15
313.15 K, 66082 kPa	831.7
313.16 K, 33053 kPa	812.371
313.16 K, 33131 kPa	812.356
313.16 K, 34040 kPa	812.94
313.16 K, 62187 kPa	829.599
318.15 K, 368.3 kPa	783.457
318.15 K, 589.4 kPa	783.667
318.15 K, 9887.6 kPa	791.657
318.15 K, 33065 kPa	808.852
318.15 K, 33128 kPa	808.894
318.15 K, 35190 kPa	810.134
318.15 K, 48088 kPa	818.249
318.15 K, 52184 kPa	820.67
318.15 K, 60194 kPa	825.273
318.15 K, 62260 kPa	826.409
318.15 K, 65194 kPa	828.017
318.15 K, 66060 kPa	828.484
318.16 K, 128.5 kPa	783.253
318.16 K, 858.2 kPa	783.902
318.16 K, 1069.5 kPa	784.105
318.16 K, 1979.1 kPa	784.923
318.16 K, 2997.4 kPa	785.79
318.16 K, 4942.6 kPa	787.513
318.16 K, 6987.2 kPa	789.27
318.16 K, 8967.5 kPa	790.929
318.16 K, 11870 kPa	793.265
318.16 K, 14863 kPa	795.639
318.16 K, 17735 kPa	797.848
318.16 K, 19860 kPa	799.438
318.16 K, 21987 kPa	801.004
318.16 K, 25193 kPa	803.357
318.16 K, 27823 kPa	805.216
318.16 K, 30119 kPa	806.799
318.16 K, 32145 kPa	808.205
318.16 K, 34164 kPa	809.488
318.16 K, 38074 kPa	812.009
318.16 K, 40048 kPa	813.265
318.16 K, 41997 kPa	814.496
318.16 K, 45096 kPa	816.426
318.16 K, 50173 kPa	819.491
318.16 K, 55235 kPa	822.46
318.16 K, 58075 kPa	824.084
323.15 K, 62.1 kPa	778.89
323.15 K, 338 kPa	779.159
323.15 K, 557.5 kPa	779.374
323.15 K, 917.3 kPa	779.697
323.15 K, 2125.4 kPa	780.833
323.15 K, 3154.8 kPa	781.778
323.15 K, 5126.4 kPa	783.557
323.15 K, 7366.8 kPa	785.517
323.15 K, 9081.6 kPa	787.01
323.15 K, 10156 kPa	787.907
323.15 K, 12167 kPa	789.544
323.15 K, 15030 kPa	791.876
323.15 K, 18076 kPa	794.274
323.15 K, 19932 kPa	795.694
323.15 K, 22079 kPa	797.333
323.15 K, 25085 kPa	799.541
323.15 K, 28006 kPa	801.644
323.15 K, 30029 kPa	803.084
323.15 K, 31969 kPa	804.431
